Reference: patent US11535629B2, “Dioxoloisoquinolinone derivatives and use thereof” (HANMI PHARMACEUTICAL CO., LTD., priority 2020, dated 2022)
pIC50: −log10 of the molar value. Where two headings read alike, the source gives them in different places.

Key:
KARPAS-422 cells = experiment: Cell growth inhibition test (CTG method); format: cell-based; settings: KARPAS-422 (EZH2^Y641N mutant), culturing for 7 days, read-out: Cell growth inhibitory activity (GI50, nM) KARPAS-422 (EZH2^Y641N mutant)
Procedure: The cultured cell strain was prepared at 1.8×10^4 cells/400 μL and placed in a 48-well plate.

EZH1 = EZH1 (Homo sapiens (Human), UniProt Q92800); experiment: EZH1 methyltransferase inhibitory activity (radiometric scintillation proximity assay); settings: for IC50: read-out: Enzyme inhibitory activity (IC50, nM) EZH1, 2.3 nmol/L EZH1, 90 minutes at room temperature
Chain of EZH1 (Q92800 whole entry): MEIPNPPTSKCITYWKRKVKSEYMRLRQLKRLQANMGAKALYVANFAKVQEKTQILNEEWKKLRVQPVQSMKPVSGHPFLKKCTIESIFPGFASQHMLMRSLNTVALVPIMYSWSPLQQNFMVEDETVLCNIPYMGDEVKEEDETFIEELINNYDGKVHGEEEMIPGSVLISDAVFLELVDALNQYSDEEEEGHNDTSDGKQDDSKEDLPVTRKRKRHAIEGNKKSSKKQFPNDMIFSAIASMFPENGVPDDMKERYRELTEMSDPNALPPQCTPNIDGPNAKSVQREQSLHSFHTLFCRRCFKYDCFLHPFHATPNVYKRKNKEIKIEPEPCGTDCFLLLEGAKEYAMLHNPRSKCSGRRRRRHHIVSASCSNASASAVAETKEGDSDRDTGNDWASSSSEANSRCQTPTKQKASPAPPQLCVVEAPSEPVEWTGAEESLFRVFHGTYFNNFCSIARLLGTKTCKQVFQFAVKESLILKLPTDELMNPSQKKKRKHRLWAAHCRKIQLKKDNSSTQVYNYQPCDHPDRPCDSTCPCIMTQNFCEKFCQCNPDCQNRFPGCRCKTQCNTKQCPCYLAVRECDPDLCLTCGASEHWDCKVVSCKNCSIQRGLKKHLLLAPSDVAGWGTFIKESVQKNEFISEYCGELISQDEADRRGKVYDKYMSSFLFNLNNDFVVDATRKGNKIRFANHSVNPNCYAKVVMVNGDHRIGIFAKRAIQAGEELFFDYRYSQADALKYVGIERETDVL
Chain of EZH1 (O75530 whole entry partner): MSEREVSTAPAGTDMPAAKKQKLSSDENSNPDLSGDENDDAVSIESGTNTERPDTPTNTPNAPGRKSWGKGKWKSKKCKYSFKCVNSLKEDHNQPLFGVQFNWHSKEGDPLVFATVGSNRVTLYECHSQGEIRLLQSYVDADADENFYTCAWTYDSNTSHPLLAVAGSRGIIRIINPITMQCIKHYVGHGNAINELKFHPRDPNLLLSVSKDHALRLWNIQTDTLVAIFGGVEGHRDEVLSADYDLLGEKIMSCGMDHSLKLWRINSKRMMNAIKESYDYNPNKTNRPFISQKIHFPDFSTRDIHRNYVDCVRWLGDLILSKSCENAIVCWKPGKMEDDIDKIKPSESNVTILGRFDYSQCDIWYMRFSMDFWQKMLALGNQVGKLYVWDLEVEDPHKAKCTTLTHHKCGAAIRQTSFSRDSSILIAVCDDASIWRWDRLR
Chain of EZH1 (Q15022 whole entry partner): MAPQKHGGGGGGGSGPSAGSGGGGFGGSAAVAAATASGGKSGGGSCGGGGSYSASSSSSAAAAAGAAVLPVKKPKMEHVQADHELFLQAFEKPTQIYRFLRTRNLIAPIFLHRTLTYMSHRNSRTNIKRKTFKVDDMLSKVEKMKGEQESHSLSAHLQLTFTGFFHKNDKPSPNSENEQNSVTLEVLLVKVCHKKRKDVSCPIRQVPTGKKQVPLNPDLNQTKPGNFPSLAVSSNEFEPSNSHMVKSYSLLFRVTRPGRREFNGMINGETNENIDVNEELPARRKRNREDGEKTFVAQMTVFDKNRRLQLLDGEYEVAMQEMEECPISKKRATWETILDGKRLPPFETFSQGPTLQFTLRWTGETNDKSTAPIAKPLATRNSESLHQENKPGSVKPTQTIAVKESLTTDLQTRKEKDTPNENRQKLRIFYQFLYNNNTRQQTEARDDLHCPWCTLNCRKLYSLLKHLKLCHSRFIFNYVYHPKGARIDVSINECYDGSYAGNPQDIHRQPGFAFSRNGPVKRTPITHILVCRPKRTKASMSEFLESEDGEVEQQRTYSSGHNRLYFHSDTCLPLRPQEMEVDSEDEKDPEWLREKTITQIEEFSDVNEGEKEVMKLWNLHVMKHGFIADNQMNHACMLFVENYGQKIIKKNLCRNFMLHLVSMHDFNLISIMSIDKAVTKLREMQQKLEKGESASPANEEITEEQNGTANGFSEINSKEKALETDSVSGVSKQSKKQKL
Chain of EZH1 (Q09028 whole entry partner): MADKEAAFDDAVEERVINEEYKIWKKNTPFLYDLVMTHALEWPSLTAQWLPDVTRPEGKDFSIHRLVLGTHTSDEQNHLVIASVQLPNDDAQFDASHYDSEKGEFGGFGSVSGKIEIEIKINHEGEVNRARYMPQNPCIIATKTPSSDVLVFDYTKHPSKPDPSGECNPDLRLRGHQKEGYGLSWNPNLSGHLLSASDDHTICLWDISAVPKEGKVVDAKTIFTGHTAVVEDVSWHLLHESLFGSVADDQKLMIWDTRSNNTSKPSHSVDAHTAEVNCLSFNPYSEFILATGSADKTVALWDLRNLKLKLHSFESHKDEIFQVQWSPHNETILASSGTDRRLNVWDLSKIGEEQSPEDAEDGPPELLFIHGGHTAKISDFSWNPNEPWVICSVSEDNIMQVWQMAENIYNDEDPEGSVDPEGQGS
Chain of EZH1 (Q6ZN18 whole entry partner): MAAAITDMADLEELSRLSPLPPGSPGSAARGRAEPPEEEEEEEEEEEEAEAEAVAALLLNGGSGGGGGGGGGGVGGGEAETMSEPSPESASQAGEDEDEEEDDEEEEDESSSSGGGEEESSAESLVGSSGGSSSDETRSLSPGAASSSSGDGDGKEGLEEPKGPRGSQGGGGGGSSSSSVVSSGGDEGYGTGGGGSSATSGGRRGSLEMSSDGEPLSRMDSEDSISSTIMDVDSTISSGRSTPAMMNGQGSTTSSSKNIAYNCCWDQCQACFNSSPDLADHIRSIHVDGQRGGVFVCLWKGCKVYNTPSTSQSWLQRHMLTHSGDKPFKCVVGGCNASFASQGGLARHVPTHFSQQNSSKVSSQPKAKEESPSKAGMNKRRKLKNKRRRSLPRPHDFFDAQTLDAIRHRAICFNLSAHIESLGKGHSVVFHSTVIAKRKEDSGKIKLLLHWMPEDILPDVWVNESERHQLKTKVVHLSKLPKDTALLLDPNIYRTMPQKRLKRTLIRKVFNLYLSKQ
Procedure: The inhibitory activity of the synthesized compounds above against EZH1 or EZH2 methyltransferase was measured. The experiments were consigned to Reaction Biology, and EZH1 or EZH2 activity was measured using a radiometric scintillation proximity assay. […] The buffer solution was comprised of 50 mmol/L Tris-HCl pH 8.0, 50 mmol/L NaCl, 1 mmol/L EDTA, 1 mmoL/L DTT, 1 mmol/L PMSF and 1% DMSO. Trichloroacetic acid was added to end the reaction, and SPA beads coated with PVT streptavidin were added followed by 1 hour reaction at room temperature. A TopCount NXT plate reader was used to measure the methylation value of the substrate peptide. The measured values were converted to percent activity, setting the mean value for wells treated with DMSO as 100% and the background mean value as 0%.

[1] = Homo sapiens, KARPAS-422, 168 h

Row | Compound | GI50 (KARPAS-422 cells) [nM] | pIC50 (EZH1) | GI50 (KARPAS-422 cells; [1]) [nM] | IC50 (EZH1) [nM]
1 | Cc1cc(C)c(CN2CCc3c(Cl)c4c(c(C)c3C2=O)OC(C)(C23CCC(N(C)C)(CC2)CC3)O4)c(=O)[nH]1 (single isomer, unassigned) [Compound 2, 9-chloro-6-((4,6-dimethyl-2-oxo-1,2-dihydropyridin-3-yl)methyl)-2-(4-(dimethylamino)bicyclo[2.2.2]octan-1-yl)-2,4-dimethyl-7,8-dihydro-[1,3]dioxolo[4,5-g]isoquinolin-5(6H)-one] | 4.5 | 7.82 | – | –
2 | COc1cc(C)[nH]c(=O)c1CN1CCc2c(Cl)c3c(c(C)c2C1=O)OC(C)(C12CCC(N(C)C)(CC1)CC2)O3 (single isomer, unassigned) [Compound 5, 9-chloro-2-(4-(dimethylamino)bicyclo[2.2.2]octan-1-yl)-6-((4-methoxy-6-methyl-2-oxo-1,2-dihydropyridin-3-yl)methyl)-2,4-dimethyl-7,8-dihydro[1,3]dioxolo[4,5-g]isoquinolin-5(6H)-one] | 4.5 | 7.77 | – | –
3 | CSc1cc(C)[nH]c(=O)c1CN1CCc2c(Cl)c3c(c(C)c2C1=O)OC(C)(C12CCC(N(C)C)(CC1)CC2)O3 (single isomer, unassigned) [Compound 8, 9-chloro-2-(4-(dimethylamino)bicyclo[2.2.2]octan-1-yl)-2,4-dimethyl-6-((6-methyl-4-(methylthio)-2-oxo-1,2-dihydropyridin-3-yl)methyl)-7,8-dihydro[1,3]dioxolo[4,5-g]isoquinolin-5(6H)-one] | 3.9 | 6.78 | – | –
4 | Cc1cc(C)c(CN2CCc3c(Br)c4c(c(C)c3C2=O)OC(C)(C23CCC(N(C)C)(CC2)CC3)O4)c(=O)[nH]1 (single isomer, unassigned) [Compound 11, 9-bromo-6-((4,6-dimethyl-2-oxo-1,2-dihydropyridin-3-yl)methyl)-2-(4-(dimethylamino)bicyclo[2.2.2]octan-1-yl)-2,4-dimethyl-7,8-dihydro-[1,3]dioxolo[4,5-g]isoquinolin-5(6H)-one] | 3.8 to 12 | 7.82 | – | –
5 | Cc1cc(C)c(CN2CCc3c(C)c4c(c(C)c3C2=O)OC(C)(C23CCC(N(C)C)(CC2)CC3)O4)c(=O)[nH]1 (single isomer, unassigned) [Compound 23, 6-((4,6-dimethyl-2-oxo-1,2-dihydropyridin-3-yl)methyl)-2-(4-(dimethylamino)bicyclo[2.2.2]octan-1-yl)-2,4,9-trimethyl-7,8-dihydro-[1,3]dioxolo[4,5-g]isoquinolin-5(6H)-one] | – | 7.92 | 3.7 to 6.8 | –
6 | Cc1cc(C)c(CN2CCc3c(c(C)c4c(c3-c3ccco3)O[C@](C)([C@H]3CC[C@H](N(C)C)CC3)O4)C2=O)c(=O)[nH]1 [Compound 30, (R)-6-((4,6-dimethyl-2-oxo-1,2-dihydropyridin-3-yl)methyl)-2-(trans-4-(dimethylamino)cyclohexyl)-9-(furan-2-yl)-2,4-dimethyl-7,8-dihydro-[1,3]dioxolo[4,5-g]isoquinolin-5(6H)-one] | – | 8.00 to 8.08 | 3.9 to 8.4 | –
7 | Cc1cc(C)c(CN2CCc3c(c(C)c4c(c3-c3cccs3)O[C@](C)([C@H]3CC[C@H](N(C)C)CC3)O4)C2=O)c(=O)[nH]1 [Compound 32, (R)-6-((4,6-dimethyl-2-oxo-1,2-dihydropyridin-3-yl)methyl)-2-(trans-4-(dimethylamino)cyclohexyl)-2,4-dimethyl-9-(thiophen-2-yl)-7,8-dihydro-[1,3]dioxolo[4,5-g]isoquinolin-5(6H)-one] | – | – | 3.4 | 12
8 | Cc1cc(C)c(CN2CCc3c(c(C)c4c(c3-c3ccncc3)O[C@](C)([C@H]3CC[C@H](N(C)C)CC3)O4)C2=O)c(=O)[nH]1 [Compound 34, (R)-6-((4,6-dimethyl-2-oxo-1,2-dihydropyridin-3-yl)methyl)-2-(trans-4-(dimethylamino)cyclohexyl)-2,4-dimethyl-9-(pyridin-4-yl)-7,8-dihydro-[1,3]dioxolo[4,5-g]isoquinolin-5(6H)-one] | – | – | 3.7 | 32
9 | Cc1cc(C)c(CN2CCc3c(c(C)c4c(c3-c3ccc(C)o3)O[C@](C)([C@H]3CC[C@H](N(C)C)CC3)O4)C2=O)c(=O)[nH]1 [Compound 40, (R)-6-((4,6-dimethyl-2-oxo-1,2-dihydropyridin-3-yl)methyl)-2-(trans-4-(dimethylamino)cyclohexyl)-2,4-dimethyl-9-(5-methylfuran-2-yl)-7,8-dihydro-[1,3]dioxolo[4,5-g]isoquinolin-5(6H)-one] | – | – | 4.4 to 5.5 | 22
10 | Cc1cc(C)c(CN2CCc3c(c(C)c4c(c3-c3cccnc3)O[C@](C)([C@H]3CC[C@H](N(C)C)CC3)O4)C2=O)c(=O)[nH]1 [Compound 44, (R)-6-((4,6-dimethyl-2-oxo-1,2-dihydropyridin-3-yl)methyl)-2-(trans-4-(dimethylamino)cyclohexyl)-2,4-dimethyl-9-(pyridin-3-yl)-7,8-dihydro-[1,3]dioxolo[4,5-g]isoquinolin-5(6H)-one] | – | – | 5.1 | 14
11 | Cc1cc(C)c(CN2CCc3c(c(C)c4c(c3-c3cccn3C)O[C@](C)([C@H]3CC[C@H](N(C)C)CC3)O4)C2=O)c(=O)[nH]1 [Compound 48, (R)-6-((4,6-dimethyl-2-oxo-1,2-dihydropyridin-3-yl)methyl)-2-(trans-4-(dimethylamino)cyclohexyl)-2,4-dimethyl-9-(1-methyl-1H-pyrrol-2-yl)-7,8-dihydro-[1,3]dioxolo[4,5-g]isoquinolin-5(6H)-one] | – | – | 5.5 | 20
12 | Cc1cc(C)c(CN2CCc3c(c(C)c4c(c3-c3ccsc3)O[C@](C)([C@H]3CC[C@H](N(C)C)CC3)O4)C2=O)c(=O)[nH]1 [Compound 50, (R)-6-((4,6-dimethyl-2-oxo-1,2-dihydropyridin-3-yl)methyl)-2-(trans-4-(dimethylamino)cyclohexyl)-2,4-dimethyl-9-(thiophen-3-yl)-7,8-dihydro-[1,3]dioxolo[4,5-g]isoquinolin-5(6H)-one] | – | – | 4.9 | 22
13 | Cc1cc(C)c(CN2CCc3c(c(C)c4c(c3-c3cncs3)O[C@](C)([C@H]3CC[C@H](N(C)C)CC3)O4)C2=O)c(=O)[nH]1 [Compound 52, (R)-6-((4,6-dimethyl-2-oxo-1,2-dihydropyridin-3-yl)methyl)-2-(trans-4-(dimethylamino)cyclohexyl)-2,4-dimethyl-9-(thiazol-5-yl)-7,8-dihydro-[1,3]dioxolo[4,5-g]isoquinolin-5(6H)-one] | – | – | 5.9 | 18
